The record followed here is US20250179061A1 (SIRONAX LTD., priority 2022, published 2025).

For this test, the system named is HT-29 cells. The experiment in a line: HT-29 necroptosis cell viability assay (TNF-α/SMAC mimetic/zVAD-FMK, CellTiter-Glo). The test is classed as cell-based. The note with it: Homo sapiens. The method, boiled down: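 Necroptosis was triggered by TNF-α (10 ng/ml), SMAC mimetic (6 μM) and zVAD-FMK (10 μM) in serum-free medium during 20 h compound exposure (10 concentrations, threefold steps) of HT-29 cells. IC50 from duplicate dose-responses uses CellTiter-Glo ATP luminescence as viability read-out.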
A general note: ATP-based viability assays read luminescence as a measure of living cells.

Setting [1] is: HT-29 cells stimulated with TNF-α (10 ng/ml), SMAC mimetic (6 μM) and zVAD-FMK (10 μM), 20 hours, CellTiter-Glo ATP luminescence, geometric mean IC50 from 10 points, read-out: Activity.
The mark [2] stands for this setting: HT-29, HT-29 necroptosis cell viability assay, class symbols for IC50, read-out: Activity.
Where [3] appears, read: HT-29, HT-29 necroptosis cell viability, IC50 class symbols, read-out: Activity.

Molecules are shown by their SMILES. Read-outs that look alike come from different tables or passages of the source.

In the case of `Cc1nc(C(N)=O)cn1Cc1ccc(-n2nc3n(c2=O)C(c2ccccc2)CC3)cc1F` (stereo not drawn) [Example 102, 1-(2-fluoro-4-(3-oxo-5-phenyl-6,7-dihydro-3H-pyrrolo[2,1-c][1,2,4]triazol-2(5H)-yl)benzyl)-2-methyl-1H-imidazole-4-carboxamide], under setting [1], the IC50 is less than 100 nM.

Turning to `Cc1nn(-c2ccc(S(=O)(=O)N3CCN(CC4CCC4)CC3)cc2)c(=O)n1Cc1ccccc1` [Example 624], the IC50 under setting [2] lay within 1000 to 10000 nM.

As to `N#Cc1cc(Oc2ccc(-n3ncn(Cc4c(F)cccc4F)c3=O)cc2F)c(Cl)cn1` [Example 406, 5-chloro-4-(4-(4-(2,6-difluorobenzyl)-5-oxo-4,5-dihydro-1H-1,2,4-triazol-1-yl)-2-fluorophenoxy)picolinonitrile], the IC50 under setting [3] was less than 100 nM.

`CCOC(=O)c1nc(C)n(Cc2ccc(-n3ncn(Cc4c(F)cccc4F)c3=O)cc2F)c1C` [Example 215, ethyl 1-(4-(4-(2,6-difluorobenzyl)-5-oxo-4,5-dihydro-1H-1,2,4-triazol-1-yl)-2-fluorobenzyl)-2,5-dimethyl-1H-imidazole-4-carboxylate]: under setting [2], the IC50 is less than 100 nM.

In the case of `O=c1n(Cc2c(F)ccc(F)c2F)cnn1-c1ccc(Oc2ccnc(N3CC4(CCOCC4)C3)c2)cc1` [Example 288, 2-(4-((2-(7-oxa-2-azaspiro[3.5]nonan-2-yl)pyridin-4-yl)oxy)phenyl)-4-(2,3,6-trifluorobenzyl)-2,4-dihydro-3H-1,2,4-triazol-3-one], under setting [3], the IC50 fell in the range of 100 to 1000 nM.

Turning to `Cc1nc(C(C)(C)O)sc1Oc1ccc(-n2ncn(Cc3ncccc3C#N)c2=O)cc1F` [Example 129, 2-((1-(3-fluoro-4-((2-(2-hydroxypropan-2-yl)-4-methylthiazol-5-yl)oxy)phenyl)-5-oxo-1,5-dihydro-4H-1,2,4-triazol-4-yl)methyl)nicotinonitrile], the IC50 under setting [2] fell in the range of 100 to 1000 nM.

With `Cc1ncc(C(N)=O)n1Cc1ccc(-n2ncn(Cc3c(F)cccc3F)c2=O)cc1F` [Example 104, 1-(4-(4-(2,6-difluorobenzyl)-5-oxo-4,5-dihydro-1H-1,2,4-triazol-1-yl)-2-fluorobenzyl)-2-methyl-1H-imidazole-5-carboxamide], the IC50 under setting [1] is less than 100 nM.

On to `COC1(C#N)CN(c2cc(Oc3ccc(-n4ncn(Cc5c(F)cccc5F)c4=O)cc3F)c(F)cn2)C1` [Example 230, 1-(4-(4-(4-(2,6-difluorobenzyl)-5-oxo-4,5-dihydro-1H-1,2,4-triazol-1-yl)-2-fluorophenoxy)-5-fluoropyridin-2-yl)-3-methoxyazetidine-3-carbonitrile], for which, under setting [3], the IC50 was less than 100 nM.

As to `COC1(C)CN(c2cc(Oc3ccc(-n4ncn(Cc5c(F)cccc5F)c4=O)cc3Cl)c(F)cn2)C1` [Example 496, 2-(3-chloro-4-((5-fluoro-2-(3-methoxy-3-methylazetidin-1-yl)pyridin-4-yl)oxy)phenyl)-4-(2,6-difluorobenzyl)-2,4-dihydro-3H-1,2,4-triazol-3-one], under setting [2], the IC50 is less than 100 nM.

As to `Cc1ncc(Oc2ccc(-n3ncn(Cc4c(F)cccc4F)c3=O)cc2)s1` [Example 99, 4-(2,6-difluorobenzyl)-2-(4-((2-methylthiazol-5-yl)oxy)phenyl)-2,4-dihydro-3H-1,2,4-triazol-3-one], under setting [1], the IC50 was less than 100 nM.

On to `Cc1nc(N2CC(C)(N)C2)sc1Oc1ccc(-n2ncn(Cc3c(F)cccc3F)c2=O)cc1F` [Example 451, 2-(4-((2-(3-amino-3-methylazetidin-1-yl)-4-methylthiazol-5-yl)oxy)-3-fluorophenyl)-4-(2,6-difluorobenzyl)-2,4-dihydro-3H-1,2,4-triazol-3-one], for which the IC50 under setting [3] is less than 100 nM.

Regarding `N#Cc1cnc(Cl)cc1Oc1ccc(-n2ncn(Cc3c(F)cccc3F)c2=O)cc1F` [Example 395, 6-chloro-4-(4-(4-(2,6-difluorobenzyl)-5-oxo-4,5-dihydro-1H-1,2,4-triazol-1-yl)-2-fluorophenoxy)nicotinonitrile], under setting [3], the IC50 lay in the range of 1000 to 10000 nM.

For the compound `CCOC1CN(c2cc(S(=O)(=O)c3ccc(-n4ncn(Cc5c(F)cccc5F)c4=O)cc3)ccn2)C1` [Example 492, 4-(2,6-difluorobenzyl)-2-(4-((2-(3-ethoxyazetidin-1-yl)pyridin-4-yl)sulfonyl)phenyl)-2,4-dihydro-3H-1,2,4-triazol-3-one], the IC50 under setting [2] was less than 100 nM.

Turning to `Cc1c(CO)nn(C)c1Oc1ccc(-n2nc3n(c2=O)C(c2ccccc2)CC3)cc1F` (stereo not drawn) [Example 158, 2-(3-fluoro-4-((3-(hydroxymethyl)-1,4-dimethyl-1H-pyrazol-5-yl)oxy)phenyl)-5-phenyl-2,5,6,7-tetrahydro-3H-pyrrolo[2,1-c][1,2,4]triazol-3-one], the IC50 under setting [2] was less than 100 nM.

For `CCc1c(Oc2ccc(-n3nc4n(c3=O)[C@H](c3ccccc3)CC4)cc2F)nsc1C(N)=O` (single isomer, unassigned) [Example 686], under setting [1], the IC50 is less than 100 nM.

With `Cc1nn(-c2ccc(S(=O)(=O)N3CCN(CC4CCOCC4)CC3)cc2)c(=O)n1Cc1ccccc1` [Example 622, 4-benzyl-5-methyl-2-(4-((4-((tetrahydro-2H-pyran-4-yl)methyl)piperazin-1-yl)sulfonyl)phenyl)-2,4-dihydro-3H-1,2,4-triazol-3-one], the IC50 under setting [2] fell in the range of 100 to 1000 nM.

With `O=c1n(-c2ccc(Oc3cc(Cl)ncc3F)c(F)c2)nc2n1C(c1ccccc1)CC2` (stereo not drawn) [Example 12, 2-(4-((2-chloro-5-fluoropyridin-4-yl)oxy)-3-fluorophenyl)-5-phenyl-2,5,6,7-tetrahydro-3H-pyrrolo[2,1-c][1,2,4]triazol-3-one], under setting [1], the IC50 is less than 100 nM.

`O=c1n(Cc2c(F)cccc2F)cnn1-c1ccc(Oc2ccnc(NC(C3CC3)C(F)(F)F)c2F)cc1` (stereo not drawn) [Example 360, 2-(4-((2-((1-cyclopropyl-2,2,2-trifluoroethyl)amino)-3-fluoropyridin-4-yl)oxy)phenyl)-4-(2,6-difluorobenzyl)-2,4-dihydro-3H-1,2,4-triazol-3-one]: the IC50 under setting [3] lay in the range of 1000 to 10000 nM.

Consider `Cc1nc([C@@H](C)O)sc1Oc1ccc(-n2ncn(Cc3c(F)cccc3F)c2=O)cc1F` (single isomer, unassigned) [Example 461], for which the IC50 under setting [3] is less than 100 nM.

In the case of `CC(C)(C)Nc1cc(Oc2ccc(-n3ncn(Cc4c(F)cccc4F)c3=O)cc2)ccn1` [Example 387, 2-(4-((2-(tert-butylamino)pyridin-4-yl)oxy)phenyl)-4-(2,6-difluorobenzyl)-2,4-dihydro-3H-1,2,4-triazol-3-one], under setting [3], the IC50 lay within 100 to 1000 nM.

For `Cc1nc(N2C[C@@H](N)[C@@H]2C)sc1Oc1ccc(-n2ncn(Cc3c(F)cccc3F)c2=O)cc1` [Example 69, 2-(4-((2-((2S,3R)-3-amino-2-methylazetidin-1-yl)-4-methylthiazol-5-yl)oxy)phenyl)-4-(2,6-difluorobenzyl)-2,4-dihydro-3H-1,2,4-triazol-3-one], the IC50 under setting [1] was less than 100 nM.

On to `CC(=O)Nc1nc(C)c(Oc2ccc(-n3ncn(Cc4c(F)cccc4F)c3=O)cc2F)s1` [Example 89, N-(5-(4-(4-(2,6-difluorobenzyl)-5-oxo-4,5-dihydro-1H-1,2,4-triazol-1-yl)-2-fluorophenoxy)-4-methylthiazol-2-yl)acetamide], for which the IC50 under setting [1] was less than 100 nM.

`CCNC(=O)c1nc(C)c(Oc2ccc(-n3ncn(Cc4c(F)cccc4F)c3=O)cc2F)s1` [Example 610, 5-(4-(4-(2,6-difluorobenzyl)-5-oxo-4,5-dihydro-1H-1,2,4-triazol-1-yl)-2-fluorophenoxy)-N-ethyl-4-methylthiazole-2-carboxamide]: the IC50 under setting [2] is less than 100 nM.

On to `Cc1ncsc1OC1CCC(n2nc3n(c2=O)[C@H](c2ccccc2)CC3)CC1` (single isomer, unassigned) [Example 636], for which, under “HT-29, HT-29 cells, necroptosis induced by TNF-α/SMAC mimetic/zVAD-FMK, CellTiter-Glo, read-out: Activity (IC50 class)”, the IC50 was 100 to 1000 nM.

As to `Cn1cc(C(C)(C)O)nc1Oc1ccc(-n2ncn(Cc3c(F)cccc3F)c2=O)cc1F` [Example 131, 4-(2,6-difluorobenzyl)-2-(3-fluoro-4-((4-(2-hydroxypropan-2-yl)-1-methyl-1H-imidazol-2-yl)oxy)phenyl)-2,4-dihydro-3H-1,2,4-triazol-3-one], under setting [2], the IC50 was more than 10000 nM.

With `Cc1ncc(C#N)n1Cc1ccc(-n2ncn(Cc3c(F)cccc3F)c2=O)cc1` [Example 185, 1-(4-(4-(2,6-difluorobenzyl)-5-oxo-4,5-dihydro-1H-1,2,4-triazol-1-yl)benzyl)-2-methyl-1H-imidazole-5-carbonitrile], the IC50 under setting [2] fell in the range of 100 to 1000 nM.

With `Cc1nn(-c2ccc(S(=O)(=O)N3CCN(C4CCCC4)CC3)cc2)c(=O)n1Cc1ccccc1` [Example 619, 4-benzyl-2-(4-((4-cyclopentylpiperazin-1-yl)sulfonyl)phenyl)-5-methyl-2,4-dihydro-3H-1,2,4-triazol-3-one], the IC50 under setting [2] was more than 10000 nM.

As for `COc1cc(S(=O)(=O)c2ccc(-n3ncn(Cc4ccccc4)c3=O)cc2)ccn1` [Example 616, 4-benzyl-2-(4-((2-methoxypyridin-4-yl)sulfonyl)phenyl)-2,4-dihydro-3H-1,2,4-triazol-3-one], the IC50 under setting [2] is less than 100 nM.

With `CCC(O)(CC)c1nc(C)c(Oc2ccc(-n3ncn(Cc4c(F)cccc4F)c3=O)cc2)s1` [Example 577, 4-(2,6-difluorobenzyl)-2-(4-((2-(3-hydroxypentan-3-yl)-4-methylthiazol-5-yl)oxy)phenyl)-2,4-dihydro-3H-1,2,4-triazol-3-one], the IC50 under setting [2] was less than 100 nM.

Take `Cc1cc(N2CC(C)(C#N)C2)nn1Cc1ccc(-n2ncn(Cc3c(F)cccc3F)c2=O)cc1` [Example 541, 1-(1-(4-(4-(2,6-difluorobenzyl)-5-oxo-4,5-dihydro-1H-1,2,4-triazol-1-yl)benzyl)-5-methyl-1H-pyrazol-3-yl)-3-methylazetidine-3-carbonitrile]: the IC50 under setting [2] is less than 100 nM.
